Reference: patent US10670605B2, “Cysteine reactive probes and uses thereof” (The Scripps Research Institute, priority 2015, dated 2020)

Tests used:
Assay in all cases: Competitive isoTOP-ABPP in situ (fragment-treated cells)
Format in all cases: cell-based
[1] = biological target: T1, cysteines in MDA-MB-231 and Ramos cells (Homo sapiens, UniProt Q9HAV7)
T1 sequence (Q9HAV7 28-217): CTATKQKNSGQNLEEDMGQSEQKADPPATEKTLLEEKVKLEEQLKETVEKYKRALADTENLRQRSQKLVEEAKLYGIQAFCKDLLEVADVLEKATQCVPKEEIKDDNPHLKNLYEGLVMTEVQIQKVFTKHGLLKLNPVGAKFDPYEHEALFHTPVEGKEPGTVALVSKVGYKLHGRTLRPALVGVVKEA

[2] = biological target: T2, cysteines in MDA-MB-231 and Ramos cells (Homo sapiens, UniProt O15294)
T2 sequence (O15294 1-1046): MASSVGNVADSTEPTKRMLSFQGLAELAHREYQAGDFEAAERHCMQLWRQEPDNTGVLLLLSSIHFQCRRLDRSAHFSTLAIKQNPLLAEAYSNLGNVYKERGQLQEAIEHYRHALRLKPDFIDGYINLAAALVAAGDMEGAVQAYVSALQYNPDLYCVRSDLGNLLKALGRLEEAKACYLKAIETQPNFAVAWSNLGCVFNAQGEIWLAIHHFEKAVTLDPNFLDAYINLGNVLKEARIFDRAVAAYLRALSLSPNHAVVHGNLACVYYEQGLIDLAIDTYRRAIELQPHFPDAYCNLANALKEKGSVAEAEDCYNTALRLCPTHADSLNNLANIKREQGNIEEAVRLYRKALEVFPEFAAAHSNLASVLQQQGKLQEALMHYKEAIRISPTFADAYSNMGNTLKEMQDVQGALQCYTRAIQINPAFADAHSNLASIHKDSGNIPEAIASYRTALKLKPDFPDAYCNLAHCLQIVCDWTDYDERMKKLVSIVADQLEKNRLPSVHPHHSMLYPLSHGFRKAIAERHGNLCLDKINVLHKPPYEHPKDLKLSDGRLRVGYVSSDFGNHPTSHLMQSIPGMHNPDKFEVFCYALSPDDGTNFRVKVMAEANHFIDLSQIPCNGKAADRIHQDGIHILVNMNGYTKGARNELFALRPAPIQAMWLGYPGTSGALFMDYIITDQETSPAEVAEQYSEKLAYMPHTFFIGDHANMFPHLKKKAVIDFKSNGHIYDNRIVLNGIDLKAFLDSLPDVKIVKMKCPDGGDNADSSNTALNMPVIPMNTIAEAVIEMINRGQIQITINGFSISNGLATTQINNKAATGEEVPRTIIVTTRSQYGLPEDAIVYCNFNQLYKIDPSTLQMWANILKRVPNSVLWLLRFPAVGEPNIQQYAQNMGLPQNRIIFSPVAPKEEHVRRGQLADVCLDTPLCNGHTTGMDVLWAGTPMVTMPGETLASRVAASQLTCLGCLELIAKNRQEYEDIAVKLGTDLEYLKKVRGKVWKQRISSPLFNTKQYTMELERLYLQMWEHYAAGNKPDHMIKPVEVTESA

[3] = biological target: T3, cysteines in MDA-MB-231 and Ramos cells (Homo sapiens, UniProt O95336)
T3 sequence (O95336 1-258): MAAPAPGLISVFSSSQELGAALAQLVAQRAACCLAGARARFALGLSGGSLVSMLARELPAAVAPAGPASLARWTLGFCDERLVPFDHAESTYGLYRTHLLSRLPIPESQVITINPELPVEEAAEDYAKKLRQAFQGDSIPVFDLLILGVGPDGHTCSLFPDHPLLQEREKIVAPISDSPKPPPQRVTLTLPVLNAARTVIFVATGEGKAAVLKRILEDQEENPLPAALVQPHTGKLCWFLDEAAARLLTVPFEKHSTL

[4] = biological target: cysteines in MDA-MB-231 and Ramos cells (Homo sapiens, UniProt P04406)
[5] = biological target: T4, cysteines in MDA-MB-231 and Ramos cells (Homo sapiens, UniProt Q99439)
T4 sequence (Q99439 1-309): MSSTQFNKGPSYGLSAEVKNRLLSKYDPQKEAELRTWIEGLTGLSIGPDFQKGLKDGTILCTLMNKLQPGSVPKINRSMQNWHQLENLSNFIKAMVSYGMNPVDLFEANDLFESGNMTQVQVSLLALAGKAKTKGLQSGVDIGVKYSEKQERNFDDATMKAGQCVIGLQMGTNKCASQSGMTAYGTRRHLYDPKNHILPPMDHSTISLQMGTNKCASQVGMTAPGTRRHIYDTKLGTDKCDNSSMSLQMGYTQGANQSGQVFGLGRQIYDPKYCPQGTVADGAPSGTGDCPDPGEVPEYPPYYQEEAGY

[6] = biological target: T5, cysteines in MDA-MB-231 and Ramos cells (Homo sapiens, UniProt P11216)
T5 sequence (P11216 1-843): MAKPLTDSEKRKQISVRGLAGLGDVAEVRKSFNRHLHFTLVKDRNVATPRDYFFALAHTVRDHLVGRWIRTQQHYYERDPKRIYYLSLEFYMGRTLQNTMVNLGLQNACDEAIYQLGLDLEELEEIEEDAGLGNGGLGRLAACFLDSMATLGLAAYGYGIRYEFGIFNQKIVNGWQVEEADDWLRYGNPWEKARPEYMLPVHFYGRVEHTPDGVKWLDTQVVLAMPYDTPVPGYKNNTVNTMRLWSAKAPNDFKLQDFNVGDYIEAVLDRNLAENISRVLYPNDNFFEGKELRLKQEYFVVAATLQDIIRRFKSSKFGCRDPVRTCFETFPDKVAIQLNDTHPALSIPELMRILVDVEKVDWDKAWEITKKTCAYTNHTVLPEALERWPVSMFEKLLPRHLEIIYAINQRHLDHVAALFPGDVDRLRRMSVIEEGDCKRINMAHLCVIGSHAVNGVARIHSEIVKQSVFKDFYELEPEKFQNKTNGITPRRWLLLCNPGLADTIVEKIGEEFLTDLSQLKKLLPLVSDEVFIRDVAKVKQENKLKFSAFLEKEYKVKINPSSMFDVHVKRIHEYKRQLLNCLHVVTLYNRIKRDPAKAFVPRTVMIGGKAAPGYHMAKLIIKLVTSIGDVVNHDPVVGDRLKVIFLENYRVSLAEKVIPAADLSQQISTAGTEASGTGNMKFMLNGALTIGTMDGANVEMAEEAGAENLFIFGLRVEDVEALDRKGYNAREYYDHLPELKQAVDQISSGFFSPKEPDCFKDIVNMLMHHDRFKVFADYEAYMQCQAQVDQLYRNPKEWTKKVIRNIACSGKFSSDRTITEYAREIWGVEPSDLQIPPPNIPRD

Sequence of cysteines in MDA-MB-231 and Ramos cells (Homo sapiens, UniProt P04406) (P04406 whole entry): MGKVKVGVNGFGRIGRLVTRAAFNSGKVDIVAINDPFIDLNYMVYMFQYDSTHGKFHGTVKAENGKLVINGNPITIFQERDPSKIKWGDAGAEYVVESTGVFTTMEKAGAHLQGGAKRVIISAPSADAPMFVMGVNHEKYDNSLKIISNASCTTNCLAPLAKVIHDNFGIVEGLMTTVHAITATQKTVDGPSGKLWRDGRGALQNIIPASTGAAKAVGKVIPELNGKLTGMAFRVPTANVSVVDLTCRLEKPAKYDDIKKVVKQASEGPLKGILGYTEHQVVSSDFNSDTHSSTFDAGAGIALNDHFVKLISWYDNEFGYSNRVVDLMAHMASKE

COc1ccc2c(c1)CCCN2C(=O)CCl [compound 2]
isoTOP-ABPP reactivity Q9HAV7_C124 GRPEL1 ([1]; 200 μM, insitu, 231): 3.2 | isoTOP-ABPP reactivity 015294_C758 OGT ([2]; 200 μM, insitu, 231): 2.6 | isoTOP-ABPP reactivity O95336_C32 PGLS ([3]; 200 μM, insitu, 231): 14.9 | isoTOP-ABPP reactivity P04406_C152 GAPDH ([4]; 200 μM, insitu, 231): 20.0

COc1ccc(C2CC(c3cccs3)=NN2C(=O)CCl)cc1 (stereo not drawn) [compound 4]
isoTOP-ABPP reactivity Q9HAV7_C124 GRPEL1 ([1]; 100 μM in situ 231): 1.7 | isoTOP-ABPP reactivity 015294_C758 OGT ([2]; 100 μM in situ 231): 6.4 | isoTOP-ABPP reactivity O15294_C620 OGT ([2]; 100 μM in situ 231): 20.0 | isoTOP-ABPP reactivity Q99439_C164 CNN2 ([5]; 100 μM in situ 231): 1.5 | isoTOP-ABPP reactivity P04406_C152 GAPDH ([4]; 100 μM in situ 231): 1.6 | isoTOP-ABPP reactivity P11216_C326 PYGB ([6]; 100 μM in situ 231): 1.7

COc1cc2c(cc1OC)CN(C(=O)CCl)CC2 [compound 8]
isoTOP-ABPP reactivity Q9HAV7_C124 GRPEL1 ([1]; 200 μM, insitu, 231): 2.2 | isoTOP-ABPP reactivity 015294_C758 OGT ([2]; 200 μM, insitu, 231): 2.4 | isoTOP-ABPP reactivity Q99439_C164 CNN2 ([5]; 200 μM, insitu, 231): 1.1 | isoTOP-ABPP reactivity O95336_C32 PGLS ([3]; 200 μM, insitu, 231): 20.0 | isoTOP-ABPP reactivity P04406_C152 GAPDH ([4]; 200 μM, insitu, 231): 1.1 | isoTOP-ABPP reactivity P11216_C326 PYGB ([6]; 200 μM, insitu, 231): 20.0

O=C(CCl)N1CCC(Cc2ccccc2)CC1 [compound 9]
isoTOP-ABPP reactivity Q9HAV7_C124 GRPEL1 ([1]; 200 μM, insitu, 231): 4.7 | isoTOP-ABPP reactivity 015294_C758 OGT ([2]; 200 μM, insitu, 231): 2.1 | isoTOP-ABPP reactivity Q99439_C164 CNN2 ([5]; 200 μM, insitu, 231): 4.7 | isoTOP-ABPP reactivity O95336_C32 PGLS ([3]; 200 μM, insitu, 231): 6.7 | isoTOP-ABPP reactivity P04406_C152 GAPDH ([4]; 200 μM, insitu, 231): 1.7 | isoTOP-ABPP reactivity P11216_C326 PYGB ([6]; 200 μM, insitu, 231): 2.6

O=C(CCl)N1CCN(S(=O)(=O)c2ccccc2F)CC1 [compound 10]
isoTOP-ABPP ratio Q9HAV7_C124 ([1]; 200 μM, insitu, 231): 1.0 | isoTOP-ABPP ratio O15294_C758 ([2]; 200 μM, insitu, 231): 2.3 | isoTOP-ABPP ratio, cysteine O15294_C620 ([2]; 200 μM, insitu, ramos): 12 .0 | isoTOP-ABPP ratio Q99439_C164 ([5]; 200 μM, insitu, 231): 1.2 | isoTOP-ABPP ratio Q99439_C164 ([5]; 200 μM, insitu, ramos): 1.3 | isoTOP-ABPP ratio P04406_C152 ([4]; 200 μM, insitu, 231): 1.0 | isoTOP-ABPP ratio P04406_C152 ([4]; 200 μM, insitu, ramos): 0.9 | isoTOP-ABPP ratio P11216_C326 ([6]; 200 μM, insitu, 231): 8.6

Cn1cc(S(=O)(=O)N2CCOCC2)cc1C(=O)NC(=O)CCl [compound 11]
isoTOP-ABPP ratio Q9HAV7_C124 ([1]; 100 μM in situ 231): 0.9 | isoTOP-ABPP ratio O15294_C758 ([2]; 100 μM in situ 231): 1.0 | isoTOP-ABPP ratio Q99439_C164 ([5]; 100 μM in situ 231): 0.6 | isoTOP-ABPP ratio O95336_C32 ([3]; 100 μM in situ 231): 0.9 | isoTOP-ABPP ratio P04406_C152 ([4]; 100 μM in situ 231): 0.8 | isoTOP-ABPP ratio P11216_C326 ([6]; 100 μM in situ 231): 0.8

O=C(CCl)NC(=O)NC12CC3CC(CC(C3)C1)C2 [compound 12]
isoTOP-ABPP ratio Q9HAV7_C124 ([1]; 200 μM, insitu, 231): 1.1 | isoTOP-ABPP ratio O15294_C758 ([2]; 200 μM, insitu, 231): 20.0 | isoTOP-ABPP ratio Q99439_C164 ([5]; 200 μM, insitu, 231): 0.9 | isoTOP-ABPP ratio O95336_C32 ([3]; 200 μM, insitu, 231): 20.0 | isoTOP-ABPP ratio P04406_C152 ([4]; 200 μM, insitu, 231): 0.9 | isoTOP-ABPP ratio P11216_C326 ([6]; 200 μM, insitu, 231): 3.9
